Assays:
BaF3 [1] = test: Antiproliferative activity against mouse BaF3 cells expressing rearranged during transfection kinase G810R-CCDC6 incubated for 74 to 76 hrs by cell counting kit 8 method
BaF3 [2] = test: Antiproliferative activity against mouse BaF3 cells expressing wildtype rearranged during transfection kinase-CCDC6 incubated for 74 to 76 hrs by cell counting kit 8 method
BaF3 [3] = test: Antiproliferative activity against mouse BaF3 cells incubated for 74 to 76 hrs by cell counting kit 8 method; format: functional, cell-based
BaF3 [4] = test: Antiproliferative activity against mouse BaF3 cells expressing rearranged during transfection kinase V804M-CCDC6 incubated for 74 to 76 hrs by cell counting kit 8 method
BaF3 [5] = test: Antiproliferative activity against mouse BaF3 cells expressing rearranged during transfection kinase G810C-CCDC6 incubated for 74 to 76 hrs by cell counting kit 8 method
[6] = target: Proto-oncogene tyrosine-protein kinase receptor Ret (Homo sapiens, UniProt P07949); test: Inhibition of wild type rearranged during transfection kinase (unknown origin) preincubated for 1 hr followed by addition of development agent incubated for 1 hr measured by FRET-based Z'-Lyte assay
BaF3 [7] = test: Antiproliferative activity against mouse BaF3 cells expressing wildtype rearranged during transfection kinase-KIF5B incubated for 74 to 76 hrs by cell counting kit 8 method
BaF3 [8] = test: Antiproliferative activity against mouse BaF3 cells expressing rearranged during transfection kinase V804L-KIF5B incubated for 74 to 76 hrs by cell counting kit 8 method
BaF3 [9] = test: Antiproliferative activity against mouse BaF3 cells expressing rearranged during transfection kinase V804L-G810S incubated for 74 to 76 hrs by cell counting kit 8 method
BaF3 [10] = test: Antiproliferative activity against mouse BaF3 cells expressing rearranged during transfection kinase V804M-KIF5B incubated for 74 to 76 hrs by cell counting kit 8 method
BaF3 [11] = test: Antiproliferative activity against mouse BaF3 cells expressing rearranged during transfection kinase V804L-G810C incubated for 74 to 76 hrs by cell counting kit 8 method
BaF3 [12] = test: Antiproliferative activity against mouse BaF3 cells expressing rearranged during transfection kinase V804L-G810R incubated for 74 to 76 hrs by cell counting kit 8 method

Sequence of Proto-oncogene tyrosine-protein kinase receptor Ret (P07949 whole entry): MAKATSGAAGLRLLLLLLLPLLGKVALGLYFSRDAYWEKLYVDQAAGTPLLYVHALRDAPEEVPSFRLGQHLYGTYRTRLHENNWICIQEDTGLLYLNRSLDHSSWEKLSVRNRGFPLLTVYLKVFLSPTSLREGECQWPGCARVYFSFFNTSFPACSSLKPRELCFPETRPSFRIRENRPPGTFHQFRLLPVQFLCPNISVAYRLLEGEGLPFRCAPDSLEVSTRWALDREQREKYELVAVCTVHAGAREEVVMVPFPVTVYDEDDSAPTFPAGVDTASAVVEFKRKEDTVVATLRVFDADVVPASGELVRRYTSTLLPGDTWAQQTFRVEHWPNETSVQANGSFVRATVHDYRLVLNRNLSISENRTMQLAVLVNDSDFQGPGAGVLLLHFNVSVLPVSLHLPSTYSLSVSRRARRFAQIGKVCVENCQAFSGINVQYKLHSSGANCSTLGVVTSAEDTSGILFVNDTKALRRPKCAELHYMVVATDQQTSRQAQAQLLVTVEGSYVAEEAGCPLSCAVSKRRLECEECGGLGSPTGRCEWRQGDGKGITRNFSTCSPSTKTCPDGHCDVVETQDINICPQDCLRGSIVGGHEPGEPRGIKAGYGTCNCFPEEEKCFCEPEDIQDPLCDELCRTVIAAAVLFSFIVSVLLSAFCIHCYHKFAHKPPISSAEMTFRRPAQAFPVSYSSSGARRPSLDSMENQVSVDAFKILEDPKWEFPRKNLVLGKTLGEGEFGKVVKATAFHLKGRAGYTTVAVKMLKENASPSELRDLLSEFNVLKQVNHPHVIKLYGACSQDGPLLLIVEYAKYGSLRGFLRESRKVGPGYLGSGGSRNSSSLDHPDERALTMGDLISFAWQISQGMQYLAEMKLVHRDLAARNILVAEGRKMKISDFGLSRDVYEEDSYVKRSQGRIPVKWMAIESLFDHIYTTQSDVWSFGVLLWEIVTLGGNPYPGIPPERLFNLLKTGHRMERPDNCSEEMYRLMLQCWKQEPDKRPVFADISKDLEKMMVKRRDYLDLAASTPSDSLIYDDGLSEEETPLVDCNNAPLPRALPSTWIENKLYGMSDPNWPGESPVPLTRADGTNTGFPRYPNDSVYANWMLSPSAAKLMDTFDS

IC50 (BaF3 [1]) | IC50 (BaF3 [2]) | IC50 (BaF3 [3]) | IC50 (BaF3 [4]) | IC50 (BaF3 [5]) | IC50 [6] | IC50 (BaF3 [7]) | IC50 (BaF3 [8]) | IC50 (BaF3 [9]) | IC50 (BaF3 [10]) | IC50 (BaF3 [11]) | IC50 (BaF3 [12]) | SMILES
534 nM | 11.2 nM | > 10000 nM | 29.7 nM | 233 nM | – | – | – | – | – | – | – | Cn1cc(C(=O)NC23CC4CC(CC(C4)C2)C3)c(Nc2ccc(Oc3ccnc4cc(OCCN5CCOCC5)c(C(N)=O)cc34)c(F)c2)n1
3520 nM | 3060 nM | 5650 nM | 3780 nM | 5760 nM | > 10000 nM | – | – | – | – | – | – | COc1cc2nccc(Oc3ccc(Nc4nn(C)cc4C(=O)N4CCCCC4)cc3)c2cc1C(N)=O
1640 nM | 179 nM | > 10000 nM | 1360 nM | 1000 nM | – | – | – | – | – | – | – | COc1cc2nccc(Oc3ccc(Nc4nn(C)cc4C(=O)NC45CC6CC(CC(C6)C4)C5)cc3F)c2cc1C(N)=O
1200 nM | > 10000 nM | 1710 nM | 1860 nM | > 10000 nM | > 10000 nM | – | – | – | – | – | – | COc1cc2nccc(Oc3ccc(Nc4nn(C)cc4C(=O)Nc4ccccc4F)cc3)c2cc1C(N)=O
9080 nM | 2180 nM | > 10000 nM | 1120 nM | 8540 nM | – | – | – | – | – | – | – | COc1cc2nccc(Oc3ccc(Nc4nn(C)cc4C(=O)NCc4ccccc4)cc3)c2cc1C(N)=O
1100 nM | 7.4 nM | > 10000 nM | 17.4 nM | 472 nM | – | 10.6 nM | 37.8 nM | 253 nM | 72 nM | 1240 nM | 4340 nM | COc1ccc(CN2C3CC2CN(c2ccc(-c4cc(OCC(C)(C)O)cn5ncc(C#N)c45)cn2)C3)cn1 [SELPERCATINIB]
> 10000 nM | 2260 nM | > 10000 nM | 1720 nM | > 10000 nM | – | – | – | – | – | – | – | COc1cc2nccc(Oc3ccc(Nc4nn(C)cc4C(=O)Nc4ccccc4)cc3)c2cc1C(N)=O
591 nM | 21.6 nM | – | 141 nM | 349 nM | – | – | – | – | – | – | – | COc1cc(Oc2ccnc3cc(OC)c(C(N)=O)cc23)ccc1Nc1nn(C)cc1C(=O)NC12CC3CC(CC(C3)C1)C2
464 nM | 11.8 nM | > 10000 nM | 62.2 nM | 66.1 nM | – | – | – | – | – | – | – | COc1cc2nccc(Oc3ccc(Nc4nn(C)cc4C(=O)NC45CC6CC(CC(C6)C4)C5)c(C)c3)c2cc1C(N)=O

The next lines start with the molecule.

SMILES | IC50 (BaF3 [1]) | IC50 (BaF3 [2]) | IC50 (BaF3 [3]) | IC50 (BaF3 [4]) | IC50 (BaF3 [5]) | IC50 [6] | IC50 (BaF3 [7]) | IC50 (BaF3 [8]) | IC50 (BaF3 [9]) | IC50 (BaF3 [10]) | IC50 (BaF3 [11]) | IC50 (BaF3 [12])
COc1cc2nccc(Oc3ccc(Nc4nn(C)cc4C(=O)NCC(C)C)cc3)c2cc1C(N)=O | 2050 nM | 206 nM | > 10000 nM | 2080 nM | 2280 nM | – | – | – | – | – | – | –
COc1cc2nccc(Oc3ccc(Nc4nn(C)cc4C(=O)N4CCCC5CCCCC54)cc3)c2cc1C(N)=O (stereo unspecified) | 1700 nM | 2980 nM | 4330 nM | 903 nM | 3770 nM | > 10000 nM | – | – | – | – | – | –
COc1cc2nccc(Oc3ccc(Nc4nn(C)cc4C(=O)NCC4CCCCC4)cc3)c2cc1C(N)=O | 3620 nM | 281 nM | > 10000 nM | 888 nM | 1260 nM | – | – | – | – | – | – | –
Cn1cc(C(=O)NC23CC4CC(CC(C4)C2)C3)c(Nc2ccc(Oc3ccnc4cc(OCCCN5CCOCC5)c(C(N)=O)cc34)c(F)c2)n1 | 329 nM | 5.1 nM | 1360 nM | 7 nM | 363 nM | – | – | – | – | – | – | –
COc1cc2nccc(Oc3ccc(Nc4nn(C)cc4C(=O)NC45CC6CC(CC(C6)C4)C5)cc3F)c2cc1C#N | 1290 nM | 142 nM | > 10000 nM | 1620 nM | 659 nM | – | – | – | – | – | – | –
COc1cc2nccc(Oc3ccc(Nc4nn(C)cc4C(=O)NC45CC6CC(CC(C6)C4)C5)c(Cl)c3)c2cc1C(N)=O | 137 nM | 7.8 nM | > 10000 nM | 53.4 nM | 29.4 nM | – | – | – | – | – | – | –
CO[C@]1(C(=O)N[C@@H](C)c2ccc(-n3cc(F)cn3)nc2)CC[C@H](c2nc(C)cc(Nc3cc(C)[nH]n3)n2)CC1 [PRALSETINIB] | 575 nM | 4.4 nM | 1170 nM | 3.5 nM | > 261 nM | – | 5.7 nM | 4.1 nM | 21.7 nM | 9.2 nM | 215 nM | 241 nM
COc1cc2nccc(Oc3ccc(Nc4nn(C)cc4C(=O)NC45CC6CC(CC(C6)C4)C5)c(C#N)c3)c2cc1C(N)=O | 230 nM | 18.8 nM | 9770 nM | 70.3 nM | 148 nM | – | – | – | – | – | – | –
COc1cc2nccc(Oc3ccc(Nc4nn(C)cc4C(=O)NC4CCCC4)cc3)c2cc1C(N)=O | 7280 nM | 153 nM | > 10000 nM | 1030 nM | 3610 nM | – | – | – | – | – | – | –
COc1cc2nccc(Oc3ccc(Nc4nn(C)cc4C(=O)NC45CCC(CC4)CC5)cc3)c2cc1C(N)=O | 263 nM | 13.9 nM | > 10000 nM | 161 nM | 329 nM | – | – | – | – | – | – | –
COc1cc2nccc(Oc3ccc(Nc4nn(C)cc4C(=O)NC45CC6CC(CC(C6)C4)C5)cc3)c2cc1C(N)=O | 285 nM | 8.7 nM | > 10000 nM | 60.8 nM | 99.9 nM | – | – | – | – | – | – | –
COc1cc2nccc(Oc3ccc(Nc4nn(C)cc4C(=O)NC4CCCCCCC4)cc3)c2cc1C(N)=O | 523 nM | 12.5 nM | 3210 nM | 171 nM | 95.3 nM | – | – | – | – | – | – | –
COc1cc2nccc(Oc3ccc(Nc4nn(C)cc4C(=O)Nc4ccc(F)cc4)cc3)c2cc1C(N)=O | 2900 nM | 2980 nM | 3060 nM | 3020 nM | 5190 nM | > 10000 nM | – | – | – | – | – | –
COc1cc2nccc(Oc3ccc(Nc4nn(C)cc4C(=O)Nc4cccc(F)c4)cc3)c2cc1C(N)=O | 3440 nM | 1560 nM | 4480 nM | 3270 nM | 8520 nM | > 10000 nM | – | – | – | – | – | –
COc1cc2nccc(Oc3ccc(Nc4nn(C)cc4C(=O)NC4CCCCC4)cc3)c2cc1C(N)=O | 582 nM | 24 nM | 4800 nM | 235 nM | 442 nM | – | – | – | – | – | – | –
COc1cc2nccc(Oc3ccc(Nc4nn(C)cc4C(=O)NOCc4ccccc4)cc3)c2cc1C(N)=O | 4940 nM | 410 nM | > 10000 nM | 732 nM | > 10000 nM | – | – | – | – | – | – | –
COc1cc2nccc(Oc3ccc(Nc4nn(C)cc4C(=O)NCC4CCCO4)cc3)c2cc1C(N)=O (stereo unspecified) | 9680 nM | 1160 nM | > 10000 nM | 6910 nM | 9510 nM | – | – | – | – | – | – | –
CNC(=O)c1cc2c(Oc3ccc(Nc4nn(C)cc4C(=O)NC45CC6CC(CC(C6)C4)C5)cc3F)ccnc2cc1OC | 192 nM | 13.8 nM | > 10000 nM | 61.5 nM | 122 nM | – | – | – | – | – | – | –

Source: ChEMBL document CHEMBL5247627, “1-Methyl-3-((4-(quinolin-4-yloxy)phenyl)amino)-1H-pyrazole-4-carboxamide derivatives as new rearranged during Transfection (RET) kinase inhibitors capable of suppressing resistant mutants in solvent-front regions” (Eur J Med Chem, 2022)
